Where a SMILES comes first, the peptide text is derived from it. Bridges are numbered along the chain shown (N, C = ends). The star is where a group is joined. DOTA = O=C(O)CN1CCN(CC(=O)O)CCN(CC(=O)*)CCN(CC(=O)O)CC1; NOTA = O=C(O)CN1CCN(CC(=O)O)CCN(CC(=O)*)CC1; X1 = O=[N+]([O-])c1cc([N+](=O)[O-])c(*)cc1F; PEG4 = NCCOCCOCCOCCOCCC(=O)O
Legend:
in vivo = settings: female, athymic Nu/Nu, mouse, 3.7 MBq, total radioactivity
[1] = tested on: HCT-116 tumor bearing mice; assay: Biodistribution; settings: for Bone uptake / Brain uptake / Fat uptake / Heart uptake / Kidney uptake / L lg int (lower large intestine) uptake / Liver uptake / Lung uptake / Muscle uptake / Sm int (small intestine) uptake / Spleen uptake / Stomach uptake / U lg int (upper large intestine) uptake: HCT-116 tumor bearing mice; for Bone uptake / Brain uptake / Fat uptake / Heart uptake / Kidney uptake / L lg int (lower large intestine) uptake / Liver uptake / Lung uptake / Muscle uptake / Sm int (small intestine) uptake / Spleen uptake / Stomach uptake / U lg int (upper large intestine) uptake / Tumor uptake: gamma counter; for Bone uptake / Brain uptake / Fat uptake / Heart uptake / Kidney uptake / L lg int (lower large intestine) uptake / Liver uptake / Lung uptake / Muscle uptake / Sm int (small intestine) uptake / Spleen uptake / Stomach uptake / U lg int (upper large intestine) uptake / Tumor uptake / Tumor-to-blood ratio: mean ± SD; for Tumor uptake: HCT-116 tumor xenograft; for Tumor uptake / Tumor-to-blood ratio: mice; for Tumor-to-blood ratio: HCT-116 tumor xenografts
[2] = Sm int (small intestine) uptake

For `CC[C@H](C)[C@@H]1NC(=O)[C@H](CC(=O)O)NC(=O)[C@@H](NC(=O)[C@H](CCC(=O)O)NC(=O)[C@H](CC(N)=O)NC(=O)CNC(=O)CNC(=O)CCOCCOCCOCCOCCNC(=O)CN2CCN(CC(=O)O)CCN(CC(=O)O)CC2)CSSC[C@@H](C(=O)N[C@@H](Cc2ccccc2)C(=O)N[C@@H](CCC(=O)O)C(=O)N[C@@H](CCCNC(=N)N)C(=O)N[C@@H](CCCCNc2cc(F)c([N+](=O)[O-])cc2[N+](=O)[O-])C(N)=O)NC(=O)[C@H](CCC(=O)O)NC(=O)[C@H](Cc2c[nH]c3ccccc23)NC(=O)[C@H](CCC(=O)O)NC(=O)[C@H](Cc2c[nH]c3ccccc23)NC(=O)[C@H](CCSC)NC(=O)[C@H](CCCNC(=N)N)NC(=O)[C@H](C)NC1=O` [^55Co-NO2A-L19K-FDNB] ({NOTA-PEG4}-GGNECDIARMWEWECFERK(X1)-NH2; disulfide 5-15), the tissue uptake at 24 h (in vivo; Bone uptake) was 0.28 ± 0.04 %ID/g, the tissue uptake at 48 h (in vivo; Bone uptake) was 0.14 ± 0.02 %ID/g and the tissue uptake at 24 h (in vivo; Fat uptake) was 0.8 ± 0.4 %ID/g. For the same compound, the tissue uptake at 48 h (in vivo; Fat uptake) was 0.3 ± 0.1 %ID/g, the tissue uptake at 24 h (in vivo; Liver uptake) was 1 ± 0.1 %ID/g and the tissue uptake at 48 h (in vivo; Liver uptake) was 0.44 ± 0.03 %ID/g. For the same compound, the tissue uptake at 24 h (in vivo; Lung uptake) was 0.9 ± 0.1 %ID/g, the tissue uptake at 48 h (in vivo; Lung uptake) was 0.46 ± 0.06 %ID/g and the tissue uptake at 24 h (in vivo; [2]) was 0.26 ± 0.01 %ID/g. It also gave a tissue uptake at 48 h (in vivo; [2]) of 0.14 ± 0.04 %ID/g, a tissue uptake at 24 h (in vivo; Tumor uptake) of 0.9 ± 0.1 %ID/g and a tissue uptake at 48 h (in vivo; Tumor uptake) of 0.49 ± 0.09 %ID/g.
Compound `CC[C@H](C)[C@@H]1NC(=O)[C@H](CC(=O)O)NC(=O)[C@@H](NC(=O)[C@H](CCC(=O)O)NC(=O)[C@H](CC(N)=O)NC(=O)CNC(=O)CNC(=O)CCOCCOCCOCCOCCNC(=O)CN2CCN(CC(=O)O)CCN(CC(=O)O)CCN(CC(=O)O)CC2)CSSC[C@@H](C(=O)N[C@@H](Cc2ccccc2)C(=O)N[C@@H](CCC(=O)O)C(=O)N[C@@H](CCCNC(=N)N)C(=O)N[C@@H](CCCCNc2cc(F)c([N+](=O)[O-])cc2[N+](=O)[O-])C(N)=O)NC(=O)[C@H](CCC(=O)O)NC(=O)[C@H](Cc2c[nH]c3ccccc23)NC(=O)[C@H](CCC(=O)O)NC(=O)[C@H](Cc2c[nH]c3ccccc23)NC(=O)[C@H](CCSC)NC(=O)[C@H](CCCNC(=N)N)NC(=O)[C@H](C)NC1=O` [^55Co-DO3A-L19K-FDNB] ({DOTA-PEG4}-GGNECDIARMWEWECFERK(X1)-NH2; disulfide 5-15) has a tissue uptake at 24 h (in vivo; Bone uptake) of 0.3 ± 0.04 %ID/g, a tissue uptake at 48 h (in vivo; Bone uptake) of 0.26 ± 0.05 %ID/g and a tissue uptake at 24 h (in vivo; Fat uptake) of 0.4 ± 0.1 %ID/g. The tissue uptake at 48 h (in vivo; Fat uptake) was 0.3 ± 0.03 %ID/g, the tissue uptake at 24 h (in vivo; Liver uptake) was 1.1 ± 0.2 %ID/g and the tissue uptake at 48 h (in vivo; Liver uptake) was 0.7 ± 0.1 %ID/g. It also gave a tissue uptake at 24 h (in vivo; Lung uptake) of 0.8 ± 0.1 %ID/g, a tissue uptake at 48 h (in vivo; Lung uptake) of 0.56 ± 0.03 %ID/g and a tissue uptake at 24 h (in vivo; [2]) of 0.31 ± 0.04 %ID/g. It also gave a tissue uptake at 48 h (in vivo; [2]) of 0.19 ± 0.03 %ID/g, a tissue uptake at 24 h (in vivo; Tumor uptake) of 1.1 ± 0.2 %ID/g and a tissue uptake at 48 h (in vivo; Tumor uptake) of 0.71 ± 0.03 %ID/g.
For `[Cl][55Co][Cl]` [^55CoCl2], the Bone uptake ([1]; 2 hr p.i.) was 1.3 ± 0.2 %ID/g, the Brain uptake ([1]; 2 hr p.i.) was 0.31 ± 0.02 %ID/g and the Fat uptake ([1]; 2 hr p.i.) was 1.5 ± 0.9 %ID/g. The Heart uptake ([1]; 2 hr p.i.) was 4.8 ± 0.4 %ID/g, the Kidney uptake ([1]; 2 hr p.i.) was 10.5 ± 1.4 %ID/g and the “L lg int (lower large intestine) uptake” value ([1]; 2 hr p.i.) was 1.9 ± 1.0 %ID/g. The Liver uptake ([1]; 2 hr p.i.) was 15.7 ± 0.4 %ID/g, the Lung uptake ([1]; 2 hr p.i.) was 4.0 ± 0.3 %ID/g and the Muscle uptake ([1]; 2 hr p.i.) was 0.6 ± 0.1 %ID/g. For the same compound, the “Sm int (small intestine) uptake” value ([1]; 2 hr p.i.) was 3.6 ± 0.6 %ID/g, the Spleen uptake ([1]; 2 hr p.i.) was 1.9 ± 0.4 %ID/g and the Stomach uptake ([1]; 2 hr p.i.) was 1.1 ± 0.1 %ID/g. For the same compound, the “U lg int (upper large intestine) uptake” value ([1]; 2 hr p.i.) was 4.3 ± 0.8 %ID/g, the Tumor uptake ([1]; 2 hr p.i.) was 2.8 ± 0.6 %ID/g and the Tumor-to-blood ratio ([1]; 2 hrs p.i.) was 0.6 ± 0.1. For the same compound, the Bone uptake ([1]; 24 hr p.i., n=3) was 0.8 ± 0.1 %ID/g, the Brain uptake ([1]; 24 hr p.i., n=3) was 0.17 ± 0.03 %ID/g and the Fat uptake ([1]; 24 hr p.i., n=3) was 0.7 ± 0.4 %ID/g. The Heart uptake ([1]; 24 hr p.i., n=3) was 2.8 ± 0.7 %ID/g, the Kidney uptake ([1]; 24 hr p.i., n=3) was 4.4 ± 0.4 %ID/g and the “L lg int (lower large intestine) uptake” value ([1]; 24 hr p.i., n=3) was 2.2 ± 0.3 %ID/g. It also gave a Liver uptake ([1]; 24 hr p.i., n=3) of 6.2 ± 0.8 %ID/g, a Lung uptake ([1]; 24 hr p.i., n=3) of 1.9 ± 0.1 %ID/g and a Muscle uptake ([1]; 24 hr p.i., n=3) of 0.37 ± 0.08 %ID/g. The “Sm int (small intestine) uptake” value ([1]; 24 hr p.i., n=3) was 1.1 ± 0.2 %ID/g, the Spleen uptake ([1]; 24 hr p.i., n=3) was 0.82 ± 0.05 %ID/g and the Stomach uptake ([1]; 24 hr p.i., n=3) was 1.0 ± 0.2 %ID/g. The “U lg int (upper large intestine) uptake” value ([1]; 24 hr p.i., n=3) was 1.5 ± 0.1 %ID/g, the Tumor uptake ([1]; 24 hr p.i., n=3) was 1.6 ± 0.2 %ID/g and the Bone uptake ([1]; 48 hr p.i., n=3) was 0.5 ± 0.1 %ID/g. The Brain uptake ([1]; 48 hr p.i., n=3) was 0.11 ± 0.01 %ID/g, the Fat uptake ([1]; 48 hr p.i., n=3) was 0.23 ± 0.05 %ID/g and the Heart uptake ([1]; 48 hr p.i., n=3) was 1.4 ± 0.2 %ID/g. For the same compound, the Kidney uptake ([1]; 48 hr p.i., n=3) was 1.9 ± 0.2 %ID/g, the “L lg int (lower large intestine) uptake” value ([1]; 48 hr p.i., n=3) was 1.2 ± 0.2 %ID/g and the Liver uptake ([1]; 48 hr p.i., n=3) was 2.7 ± 0.7 %ID/g. For the same compound, the Lung uptake ([1]; 48 hr p.i., n=3) was 0.98 ± 0.09 %ID/g, the Muscle uptake ([1]; 48 hr p.i., n=3) was 0.17 ± 0.03 %ID/g and the “Sm int (small intestine) uptake” value ([1]; 48 hr p.i., n=3) was 0.50 ± 0.04 %ID/g. For the same compound, the Spleen uptake ([1]; 48 hr p.i., n=3) was 0.46 ± 0.04 %ID/g, the Stomach uptake ([1]; 48 hr p.i., n=3) was 0.5 ± 0.1 %ID/g and the “U lg int (upper large intestine) uptake” value ([1]; 48 hr p.i., n=3) was 0.7 ± 0.1 %ID/g. The Tumor uptake ([1]; 48 hr p.i., n=3) was 0.86 ± 0.08 %ID/g, the Tumor-to-blood ratio ([1]; 48 hrs p.i., P=0.006 vs 2 hrs) was 1.9 ± 0.4 and the “Consecutive decrease in liver and kidney uptake” value ([1]; at 24 and 48 hrs p.i. after high uptake at 2 hrs p.i.) was “about 2 fold”. The “Increase of tumor-to-blood ratio” value ([1]; from 2 to 48 hrs p.i.) was 3 fold.
